Where two headings read alike, the source gives them in different places.
Key:
[1] = test system: HIV-IIIb; experiment: Test A: Antiviral Assay in MT4 Cells; format: cell-based, HIV-1; conditions: for inhibition at 0.2 µM: 0.2 μM drug concentration
In short: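 Readout was CellTiter-Glo luminescence after 10 min room-temperature lysis, taken 5 days after plating at 37 °C. The 2000 MT-4 cells per well, mixed 1 h beforehand with HIV-IIIb (m.o.i. 0.003), went straight onto the diluted compound.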

[2] = Test B: Cytotoxicity Assay; format: cell-based; conditions: human, uninfected MT-4 cells, CellTiter-Glo
Procedure: Test B: Cytotoxicity Assay Compound cytotoxicity and the corresponding CC50 values was determined using the same protocol as described in the antiviral assay (Test A) except that uninfected cells were used.

[3] = Human immunodeficiency virus 1, MT4, 120 h, MT-4 cells infected with HIV-IIIb, 5 days, values normalized to 100%, average over time, read-out: % inhibition at 0.2 μM (percent inhibition of virus-induced cell killing)

Structure (SMILES)	inhibition at 0.2 µM [1, 3] [%]	CC50 at 5 days [2] [µM]	inhibition at 0.2 µM ([1]; Human immunodeficiency virus 1, IIIB, MT4, comparison with previously published compounds, read-out: Response at 0.2 μM (percent inhibition of virus-induced cell killing)) [%]	inhibition at 2 µM ([1]; Human immunodeficiency virus 1, IIIB, MT4, 2 μM drug concentration, comparison with previously published compounds, read-out: Response at 2 μM (percent inhibition of virus-induced cell killing)) [%]
COc1ccc(C#Cc2ccc(-c3ccc4c(c3)C(=O)NC4)c([C@H](Cc3cc(F)cc(F)c3)NC(=O)Cn3nc(C(F)(F)F)c4c3C(F)(F)[C@@H]3C[C@H]43)n2)cn1 [Compound 10C, 2-((3bS,4aR)-5,5-difluoro-3-(trifluoromethyl)-3b,4,4a,5-tetrahydro-1H-cyclopropa[3,4]cyclopenta[1,2-c]pyrazol-1-yl)-N—((S)-2-(3,5-difluorophenyl)-1-(6-((6-methoxypyridin-3-yl)ethynyl)-3-(3-oxoisoindolin-5-yl)pyridin-2-yl)ethyl)acetamide]	21	> 51.9	–	–
Cn1nc(N)c2cccc(-c3ccc(C#CC4(O)CCC4)nc3[C@H](Cc3cc(F)cc(F)c3)NC(=O)Cn3nc(C(F)(F)F)c4c3C(F)(F)[C@@H]3C[C@H]43)c21 [Compound 25, N—((S)-1-(3-(3-amino-1-methyl-1H-indazol-7-yl)-6-((1-hydroxy-cyclobutyl)ethynyl)pyridin-2-yl)-2-(3,5-difluorophenyl)ethyl)-2-((3bS,4aR)-5,5-difluoro-3-(trifluoromethyl)-3b,4,4a,5-tetrahydro-1H-cyclopropa[3,4]cyclopenta[1,2-c]pyrazol-1-yl)acetamide]	91	9.92	–	–
Cn1nc(NS(C)(=O)=O)c2c(Cl)ccc(-c3ccc(C#CC4CCNC4)nc3[C@H](Cc3cc(F)cc(F)c3)NC(=O)Cn3nc(C(F)(F)F)c4c3C(F)(F)[C@@H]3C[C@H]43)c21 (stereo partly drawn) [Compound 44, N-((1S)-1-(3-(4-chloro-1-methyl-3-(methylsulfonamido)-1H-indazol-7-yl)-6-(pyrrolidin-3-ylethynyl)pyridin-2-yl)-2-(3,5-difluorophenyl)ethyl)-2-((3bS,4aR)-5,5-difluoro-3-(trifluoromethyl)-3b,4,4a,5-tetrahydro-1H-cyclopropa[3,4]cyclopenta[1,2-c]pyrazol-1-yl)acetamide]	100	5.64	–	–
Cc1nccn1C(C)(C)C#Cc1ccc(-c2ccc(Cl)c3c(NS(C)(=O)=O)nn(C)c23)c([C@H](Cc2cc(F)cc(F)c2)NC(=O)Cn2nc(C(F)F)c3c2C(F)(F)[C@@H]2C[C@H]32)n1 [Compound 89B]	87	8.31	–	–
Cn1nc(NS(C)(=O)=O)c2c(Cl)ccc(-c3ccc(C#C[C@]4(C)CNCCO4)nc3[C@H](Cc3cc(F)cc(F)c3)NC(=O)Cn3nc(C(F)(F)F)c4c3C(F)(F)[C@@H]3C[C@H]43)c21 [Compound 83G, N—((S)-1-(3-(4-chloro-1-methyl-3-(methylsulfonamido)-1H-indazol-7-yl)-6-(((R)-2-methylmorpholin-2-yl)ethynyl)pyridin-2-yl)-2-(3,5-difluorophenyl)ethyl)-2-((3bS,4aR)-5,5-difluoro-3-(trifluoromethyl)-3b,4,4a,5-tetrahydro-1H-cyclopropa[3,4]cyclopenta[1,2-c]pyrazol-1-yl)acetamide]	90	6.57	–	–
Cn1nc(NS(C)(=O)=O)c2c(Cl)ccc(-c3ccc(C#CC4(O)CC(F)(F)C4)nc3[C@H](Cc3cc(F)cc(F)c3)NC(=O)Cn3nc(C(F)F)c4c3C(F)(F)CCC4(F)F)c21 [Compound 104, (S)—N-(1-(3-(4-chloro-1-methyl-3-(methylsulfonamido)-1H-indazol-7-yl)-6-((3,3-difluoro-1-hydroxycyclobutyl)ethynyl)pyridin-2-yl)-2-(3,5-difluorophenyl)ethyl)-2-(3-(difluoromethyl)-4,4,7,7-tetrafluoro-4,5,6,7-tetrahydro-1H-indazol-1-yl)acetamide]	100	8.42	–	–
Cn1nc(NS(C)(=O)=O)c2c(Cl)ccc(-c3ccc(C#CC(C)(C)n4ccnc4)nc3[C@H](Cc3cc(F)cc(F)c3)NC(=O)Cn3nc(C(F)(F)F)c4c3C(F)(F)[C@@H]3C[C@H]43)c21 [Compound 79B, N—((S)-1-(6-(3-(1H-imidazol-1-yl)-3-methylbut-1-yn-1-yl)-3-(4-chloro-1-methyl-3-(methylsulfonamido)-1H-indazol-7-yl)pyridin-2-yl)-2-(3,5-difluorophenyl)ethyl)-2-((3bS,4aR)-5,5-difluoro-3-(trifluoromethyl)-3b,4,4a,5-tetrahydro-1H-cyclopropa[3,4]cyclopenta[1,2-c]pyrazol-1-yl)acetamide]	93	11.5	–	–
Cn1nc(NS(C)(=O)=O)c2cccc(-c3ccc(C#CC4(O)CCOCC4)nc3[C@H](Cc3cc(F)cc(F)c3)NC(=O)Cn3nc(C(F)(F)F)c4c3C(F)(F)[C@@H]3C[C@H]43)c21 [Compound 26, 2-((3bS,4aR)-5,5-difluoro-3-(trifluoromethyl)-3b,4,4a,5-tetrahydro-1H-cyclopropa[3,4]cyclopenta[1,2-c]pyrazol-1-yl)-N—((S)-2-(3,5-difluorophenyl)-1-(6-((4-hydroxytetrahydro-2H-pyran-4-yl)ethynyl)-3-(1-methyl-3-(methylsulfonamido)-1H-indazol-7-yl)pyridin-2-yl)ethyl)acetamide]	94	15.9	–	–
Cn1nc(NS(C)(=O)=O)c2cccc(-c3ccc(C#CC4(O)CCCC4)nc3[C@H](Cc3cc(F)cc(F)c3)NC(=O)Cn3nc(C(F)(F)F)c4c3C(F)(F)[C@@H]3C[C@H]43)c21 [Compound 37, 2-((3bS,4aR)-5,5-difluoro-3-(trifluoromethyl)-3b,4,4a,5-tetrahydro-1H-cyclopropa[3,4]cyclopenta[1,2-c]pyrazol-1-yl)-N—((S)-2-(3,5-difluorophenyl)-1-(6-((1-hydroxycyclopentyl)ethynyl)-3-(1-methyl-3-(methylsulfonamido)-1H-indazol-7-yl)pyridin-2-yl)ethyl)acetamide]	80	8.71	–	–
Cn1nc(NS(C)(=O)=O)c2c(Cl)ccc(-c3cc(-c4cnn(C5COC5)c4)cnc3[C@H](Cc3cc(F)cc(F)c3)NC(=O)Cn3nc(C(F)F)c4c3C(F)(F)[C@@H]3C[C@H]43)c21 [Compound 93D, N—((S)-1-(3-(4-chloro-1-methyl-3-(methylsulfonamido)-1H-indazol-7-yl)-5-(1-(oxetan-3-yl)-1H-pyrazol-4-yl)pyridin-2-yl)-2-(3,5-difluorophenyl)ethyl)-2-((3bS,4aR)-3-(difluoromethyl)-5,5-difluoro-3b,4,4a,5-tetrahydro-1H-cyclopropa[3,4]cyclopenta[1,2-c]pyrazol-1-yl)acetamide]	93	18.3	–	–
CC(O)(C#Cc1ccc(-c2ccc(F)c(C(N)=O)c2)c([C@H](Cc2cc(F)cc(F)c2)NC(=O)Cn2nc(C(F)(F)F)c3c2C(F)(F)[C@@H]2C[C@H]32)n1)c1ccccc1 (stereo partly drawn) [Compound 17, 5-(2-((S)-1-(2-((3bS,4aR)-5,5-difluoro-3-(trifluoromethyl)-3b,4,4a,5-tetrahydro-1H-cyclopropa[3,4]cyclopenta[1,2-c]pyrazol-1-yl)acetamido)-2-(3,5-difluorophenyl)ethyl)-6-(3-hydroxy-3-phenylbut-1-yn-1-yl)pyridin-3-yl)-2-fluorobenzamide]	66	3.06	66	73
